This note sets out measurements from EP0719267B1, “SECOND MESSENGER CELL SIGNALING INHIBITORS” (CELL THERAPEUTICS, INC., priority 1993, dated 1994).

One may read the IC50 as the concentration at which inhibition is half-maximal. A lower IC50 goes with greater potency. A word on the inhibition: it is the share of the control response that was lost under treatment.

Data set [1] relates to THP-1 cell adhesion to IL-1-activated HUVEC. The experiment in a line: THP-1 cell adhesion to activated HUVEC. The settings on record: IL-1 (10 ng/ml), 8 hours. In kind it is cell-based, human. As to the method:
This example illustrates inhibitive activity of compounds nos. 50 and 57 on THP-1 cell adhesion to IL-1-activated HUVEC. In an investigative assay, HUVEC were stimulated with IL-1 (10 ng/ml), both in the absence and presence of varying concentrations of drugs for 8 hours in a 96-well microtiter plate. In the wellplate, human monocytic leukemia cell line THP-1 cells were added at 50,000 cells per well. The THP-1 cells were pre-incubated with BCECF, a fluorescence dye that can be used to measure cell number using a fluorescence plate reader. After 10 minutes at 37 °C, the microtiter plate was inverted and spun at 900 rpm. The remaining adhering THP-1 cells were then analyzed.
Inventive compound no. […] HUVEC were stimulated with 20 ng/ml IL-1β or 15 ng/ml TNFα for 6 hours. Fluorescence labeled (BCECF-AM) THP-1 cells were allowed to adhere to the HUVEC for 20 minutes, washed once and the amount of fluorescence remaining analyzed on a fluorescence plate reader. The results, reported in figures 62A and 62B (TNFα or IL-1β, respectively), show inhibition of THP-1 adhesion to HUVEC.
Figures 72A and 72B illustrate that inventive compound no. 58 inhibited THP-1 cell adhesion to either TNF or IL-1-stimulated HUVEC, respectively. Procedurally, HUVEC were stimulated with TNF or IL-1 for 8 hours and THP-1 cells added for 20 minutes. The HUVEC were then washed and analyzed for adherence. Inventive compound no. 58 inhibited adhesion of THP-1 cells to HUVEC with an IC50 of approximately 1 µM for both TNF and IL-1.

The subject of data set [2] is proliferative PMBC response to allogeneic stimulation. In words: Two-way mixed lymphocyte reaction. Format: cell-based. The text has this:
This example illustrates therapeutic potential for various autoimmune and inflammatory diseases of the inventive compounds by comparing potency (inhibitive activity) with cytotoxicity data obtained using the following indicative assay procedures. In a mixed lymphocyte reaction assay of compounds nos. […] Compounds nos. […] 2A and 2B. Both compounds nos. […] 2C.
Compound no. […] Compound no.

In the next data set the test system is mast cell degranulation. In words: Serotonin release assay for inhibition of mast cell degranulation. Format: cell-based. The text has this: This assay provides an in vitro model for an allergy and asthma therapeutic product. […]
The subject of data set [3] is mixed lymphocyte reaction assay culture. The experiment in a line: Cell percent viability in mixed lymphocyte reaction culture. The settings on record: 100 µM, six days of cell culture. In kind it is cell-based. The procedure: Cell percent viability in mixed lymphocyte reaction assay culture was determined after six days of cell culture. […] Control cells unexposed to drugs are generally 78 to 85% viable under these culture conditions. In this assay, all inventive compounds were present at 100 µM concentrations, generally well above corresponding IC50 values in this assay (see fig. 2D). […] Compounds nos.

Another data set has as its system CMV promoter activity. The experiment in a line: microbe, parasite or virus in culture. In kind it is cell-based. Particulars: transformed (adenovirus) cells. From the text: This example illustrates data of proliferative activity of various inventive compounds for inducing CMV promoter activity. The CMV promoter assay measures gene transcription and translation activity wherein any active compounds will have cytotoxic activity for inhibiting cellular protein synthesis in transformed (adenovirus) cells. Compound no. […]

Data set [4] deals with PDGF/IL-1 co-stimulation, proliferation. The experiment in a line: PDGF/IL-1 co-stimulation proliferation assay. In kind it is cell-based. Particulars: fig. 14. The text has this:
The PDGF/IL-1 assay is useful in measuring in vitro activity, indicative of therapeutic potential for treating or preventing restenosis and reperfusion. Figure 14 reports IC50 bar graph results for a group of inventive compounds nos. 27, 28, 32, 30, 31, 32 and 34. In this predictive, in vitro model, compounds nos.

For data set [5], the system named is murine splenocyte proliferation. The experiment in a line: Splenocyte (B cell) proliferation stimulated by anti-mu/anti-IgM and IL-4. Particulars: Mus musculus, anti-mu and IL-4 12.5 ng/ml. In kind it is cell-based. As to the method: This example illustrates inhibitive effects of compounds nos. 27 and 28 on murine splenocyte proliferation stimulated by anti-mu ([…]) and interleukin-4 (IL-4, 12.5 ng/ml). This in vitro assay, described above, is indicative of immune-suppressive/autoimmune treatment assay emphasizing humoral or B cell immune response. The inventive compound was added to the cells at the doses indicated two hours prior to activation with anti-mu and IL-4. Both compounds nos. 27 and 28 inhibited splenocyte proliferation in a dose-response manner. IC50 values for compounds nos. Background counts were less than 200 cpm.
In figure 57, results shown illustrate that inventive compound no. 45 inhibits B cell proliferation. Murine splenocytes were stimulated with anti-IgM antibodies (10 µg/ml) and murine IL-4 (12.5 ng/ml). Cells were pulsed with ^3HTdR at 44 hours, harvested 4 hours later, and the incorporation of ^3H-TdR was determined by liquid scintillation.

In data set [6] the test system is murine thymocyte proliferation. The experiment in a line: Thymocyte proliferation co-stimulated by ConA and IL-2 (tritiated thymidine). Format: cell-based, Balb/C mice. The procedure:
ConA, used to activate CD3, induces T-cell proliferation and differentiation. Thymuses, obtained from normal, female Balb/C mice, were dissociated and plated into 96-well plates at a density of 2 x 10^5 cells/well. ConA (0.25 mg/ml) and IL-2 (15 U/ml) were added to the wells. The cells were incubated for 4 days at 37°C. On day 4, the cells were pulsed with tritiated thymidine and incubated for an additional 4 hours. The amount of tritiated thymidine dye incorporated by the harvested cells was determined in a liquid scintillation counter. Drug doses (shown in figs. 1A and 1B) were added two hours prior to ConA and IL-2 activation.
Thymuses, obtained from normal, female Balb/C mice, were dissociated and plated into 96-well plates at a density of 2 x 10^5 cells/well. ConA (0.25 mg/ml) and IL-2 (15 U/ml) were added to the wells. The cells were incubated for 4 days at 37 °C. On day 4, the cells were pulsed with tritiated thymidine and incubated for an additional 4 hours. The amount of tritiated thymidine dye incorporated by the harvested cells was determined in a liquid scintillation counter. Doses (shown in figs. 26A, 26B and 26C) were added two hours prior to ConA and IL-2 activation.
In another in vitro protocol, thymocyte proliferation was induced by sub-mitogenic doses of Con A (0.25 µg/ml) and IL-2 (20 ng/ml). Cells were stimulated for 96 hours, prior to addition of ^3H-TdR for 4 hours. The cells were harvested and incorporation of ^3H-TdR was determined.
45 on co-stimulated thymocyte proliferation. In an assay procedure, murine thymocytes were stimulated with ConA and IL-2 with 1 µM compound no. 45 added either 1 hour prior to IL-2 (-1), simultaneous with IL-2 (0) or at various times following IL-2 addition (1-92 hour). At 92 hours the thymocytes were pulsed with ^3H-TdR, harvested and counted by scintillation 4 hours later.

For the next data set, the system named is Human stromal cells. The experiment in a line: Stromal cell proliferation in response to PDGF-BB. Particulars: 50 ng/ml PDGF-BB. Format: cell-based. The procedure:
This assay is useful for predicting therapeutic activity for preventing or treating restenosis, atherosclerosis and coronary artery disease. Human stromal cells were starved in serum-free media for one day and then stimulated with 50 ng/ml PDGF-BB. Inventive compounds, at various concentrations, were added one hour prior to PDGF stimulation. PDGF and tritiated thymidine were added and the cells allowed to incubate for one day, following addition of the PDGF and thymidine. 24 Hours later, the cells were harvested and counted by liquid scintillation counting. Results for compounds nos. Background counts (i.e., starved cells) were approximately 1% of control levels. […] 30, 28, 29, 32 and 31, respectively.

Data set [7] relates to murine thymocyte proliferation. The experiment in a line: Thymocyte proliferation stimulated by Con A and IL-1α. In kind it is cell-based. Particulars: Mus musculus, 2 h, added two hours prior to Con A and IL-1α. As to the method:
In a first part of this example, compounds nos. 30, 33, 28 and 27 (see above for chemical names and structures) show effective inhibition of murine thymocyte proliferation stimulated by Con A and interleukin 1 alpha (IL-1α). Compounds nos. 30, 33, 28 and 27 were added to cell cultures two hours prior to activation with Con A and IL-1α in a thymocyte co-stimulation procedure akin to that discussed in example 21. […] IC50 values determined for each inventive compound tested are as follow: compound no. […] Background counts in the assay were less than 200 cpm.

Another data set relates to Saccharomyces cervisiae. The experiment in a line: Yeast growth assay (anti-yeast and anti-fungal activity). Format: cell-based. The settings on record: 100 µM. As to the method: This example illustrates the effects of a reference compound "X", and inventive compounds nos. 29, 30, 31, 32 and 33 (see above for names and structures) on yeast growth (Saccharomyces cervisiae)--using 100 µM concentrations--as compared with yeast activity in the absence of any compound additive (control). This assay measured anti-yeast and anti-fungal activity of the inventive compounds tested.

The test system of a further data set is mouse thymocytes. The experiment in a line: Con A priming followed by IL-2 restimulation of thymocytes. In kind it is cell-based. As to the method:
In a proliferation assay, mouse thymocytes were pre-incubated overnight with Con A (a "priming step"), washed, and restimulated with IL-2 in […] of inventive compounds. On day 4, the cells were pulsed with tritiated thymidine and allowed to incubate for an additional 4 hours. The cells were harvested and the amount of tritiated thymidine incorporated by the harvested cells was determined in a liquid scintillation counter. […] 3.
On day 4, the cells were pulsed with tritiated thymidine and allowed to incubate for an additional 4 hours. The cells were harvested and the amount of incorporated tritiated thymidine was determined in a liquid scintillation counter.

Data set [8] relates to murine cytotoxic T-cell line, CT6. In words: Cytokine-induced proliferation of the cytotoxic T-cell line CT6 / CT-6.1. Format: cell-based. Particulars: murine IL-2 (15 U/ml), figs. 21C and 21D. The procedure:
Another assay in this example was used to determine inhibitive activity of the inventive compounds on direct IL-2-induced proliferation in a murine cytotoxic T-cell line, CT6. The CT6 cell line is an IL-2-dependent cell line. IL-2 was removed from the medium for 24 hours prior to stimulation. […] 49, 50, 45, 43 or 41 were added at various concentrations. The cells were stimulated with IL-2 and amount of tritiated thymidine dye incorporated was measured 48 hours later.
In another related assay, inhibitory effects on CT6 cell proliferation is examined. CT6 cells are a murine IL-2 dependent, cytotoxic T cell line that proliferate in response to murine IL-2 (15 U/ml).
CT-6.1 cells were starved overnight and stimulated with IL-2 (20 ng/ml). Twenty hours later, cells were labeled for 4 hours with ^3H-TdR and counted by liquid scintillation.
CT6.1 cells were cultured with IL-2 with or without the addition of inventive compound no. 45 (2 µM) and viable cells counted for up to 8 days. On day 4, two cultures previously incubated with compound no. 45, were washed and recultured with fresh IL-2 with or without compound no. 45 (2 µM).
Procedurally, CT-6.1 cells were starved overnight and stimulated with either IL-2 (20 ng/ml), IL-4 (50 ng/ml) or IL-7 (25 ng/ml). ^3H-TdR was added at 20 hours, cells were harvested 4 hours later, and the incorporation of ^3H-TdR was determined.

The structures appear in SMILES notation.

Regarding `Cn1cnc2c1c(=O)n(CCCCCCCCCC(O)CNCc1ccc(N)cc1)c(=O)n2C` (stereo not drawn) [compound 57, 1-[11-(4-Aminobenzylamino)-10-hydroxyundecyl]-3,7-dimethylxanthine], the “inhibition of THP-1 adhesion” value in [1] is on record as “significantly inhibited THP-1 adhesion, even at low concentratations”.

With `Cn1cnc2c1c(=O)n(CCCCC(O)CNCc1ccccc1)c(=O)n2C` (stereo not drawn) [compound no. 13, 1-(5-hydroxy-6-(N-benzyl)aminohexyl)-3,7-dimethylxanthine], the IC50 was 55 µM in data set [2] (Lymphocyte, figs. 2A-2C) and > 500 µM in the data set on CMV promoter activity. The compound further came in with an inhibition at 100 µM in the data set on mast cell degranulation (Mast cell, Concentration 100 µM) of 28%. Further, the “cytotoxicity (percent viability)” value in data set [3] is on record as “little or no cytotoxicity”.

As for `CCCCCCCCNCC(O)CCCCn1c(=O)c2c(ncn2C)n(C)c1=O` (stereo not drawn) [compound no. 28, 1-(5-hydroxy-6-(N-octyl)aminohexyl)-3,7-dimethylxanthine], the inhibitive activity entry in data set [4] is “potent inhibitive activity”. In data set [2] (fig. 2D), the immune suppression activity result is given as “the most potent compound of those assayed”. Further, the IC50 worked out at 5.2 µM in [5], 3.2 µM in the data set with Human stromal cells, 50 µM with CMV promoter activity and 4.6 µM in data set [7]. Further, in data set [6] (ConA and IL-2 co-stimulation), the “inhibition of thymocyte proliferation” value is given as “the most potent immune-suppressive effects”. The “cytotoxicity (percent viability)” value in [3] is “the most cytotoxic at 100 µM”.

In the case of `CCCCCCN(CCCCCC)CC(O)CCCCn1c(=O)c2c(ncn2C)n(C)c1=O` (stereo not drawn) [compound no. 33, 1-(5-hydroxy-6-(N,N-dihexyl)aminohexyl)-3,7-dimethylxanthine], the yeast-growth inhibitive activity result with Saccharomyces cervisiae is “showed yeast-growth inhibitive activity”. Besides, the IC50 with CMV promoter activity turned out to be 100 µM; in [7], 8.6 µM.

Consider `CCCCCCCCNCC(O)CCCCCCCn1c(=O)c2c(ncn2C)n(C)c1=O` (stereo not drawn) [compound no. 35, 1-(8-hydroxy-9-(N-octyl)aminononyl)-3,7-dimethylxanthine], for which the “IC50 values (range in words)” value in data set [6] (figs. 21A and 21B) is “low micromolar”. Further, the “% Inhibition” value in the data set on mast cell degranulation (Concentration 50 µM) is given as “too toxic”. Further, in the data set on mouse thymocytes (Con A pre-treated cells, 1µM), the “inhibition of thymocyte proliferation, compound added with IL-2” value was “dramatically inhibited thymocyte proliferation”. Also, the “proliferation in response to IL-2 after compound present during Con A priming” value in the data set with mouse thymocytes (compound during overnight Con A incubation, IL-2 without compound) was “normal thymocyte proliferation in response to IL-2 stimulation”. Moreover, the “inhibition of IL-2-induced proliferation” value in data set [8] was “exhibited no activity in this assay”.
